{"source": "paper PMC5650142", "about": "“GPR40 partial agonists and AgoPAMs: Differentiating effects on glucose and hormonal secretions in the rodent” (PLoS ONE, 2017)", "key": {"[1]": {"biological_target": "T1, rat GPR40 (Rattus norvegicus, UniProt Q8K3T4)", "T1 construct": "expressed in transfected cells; host or cells: CHO-K1 (methods)", "T1 sequence (Q8K3T4 whole entry)": "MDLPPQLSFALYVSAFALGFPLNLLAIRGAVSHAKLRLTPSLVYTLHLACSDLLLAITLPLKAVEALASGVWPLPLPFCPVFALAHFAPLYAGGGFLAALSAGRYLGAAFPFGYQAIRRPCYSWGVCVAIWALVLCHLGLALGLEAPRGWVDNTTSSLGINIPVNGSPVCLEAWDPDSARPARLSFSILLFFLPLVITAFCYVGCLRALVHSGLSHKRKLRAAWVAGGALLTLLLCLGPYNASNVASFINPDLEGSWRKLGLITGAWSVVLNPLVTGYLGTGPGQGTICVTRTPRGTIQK", "test": "Rat GPR40 IP1 accumulation assay", "assay_type": "cell-based", "procedure": "(§1) Stable cell lines expressing human GPR40 (hGPR40/HEK293), mouse GPR40 (mGPR40/CHO-K1), and rat GPR40 (rGPR40/CHO-K1) were cultured in DMEM media supplemented with 10% FBS, glutamine, non-essential amino acids, and penicillin/streptomycin. hGPR40/HEK293 & mGPR40/CHO-K1 cell media was supplemented with […] G418 (Life Technologies), while rGPR40/CHO-K1 cells were grown in […] blasticidin plus […] hygromycin (Life Technologies). Cell stocks were maintained and grown in a sub-confluent state using standard cell culture procedures. The day before the experiment, the cells were harvested with non-enzymatic cell dissociation buffer and re-suspended in DMEM supplemented with 10% FBS, glutamine, non-essential amino acids, penicillin/streptomycin at 0.15, 0.2 and 0.3 million cells per ml for human, mouse, and rat GPR40, respectively. […] The seeded plates were incubated overnight at 37 C.\n(§2) On the day of the experiment, the growth media was removed from the assay by gently patting the assay plates on an absorbent sheet and 10 μl of IP1 stimulation buffer (Cis Bio IP-one Tb HTRF kit) supplemented with 50 mM LiCl is added to each well. Test compounds dissolved in DMSO were serially diluted in ½ log increments starting from 2 mM or 0.2 mM and 50 nl of the compound dilution was acoustically added to each well (final starting concentration 10 μM or 1 μM). Plates were then incubated for 60 minutes at room temperature and 10 μl of detection buffer (prepared as described in the Tb kit) is added to each well. The plates are then incubated one additional hour at room temperature. […] For each assay, a standard curve plate in which IP1 is titrated is also included. […] The percent activity at each concentration of test compound is determined using 0% activation (basal activity) determined in those wells that contain DMSO alone, while 100% activity is determined in wells that contained a concentration of a partial allosteric agonist know to activate GPR40. The % activity is then plotted versus the concentration of test compound and the dose response curve fitted to a standard 4-parameter non-linear regression model using a custom in-house developed software package (Merck & Co., Inc., MRL, Kenilworth, NJ, USA). Maximal % activity and EC50 are then determined for each test compound."}, "[2]": {"biological_target": "T2, human GPR40 (Homo sapiens, UniProt O14842)", "T2 sequence (O14842 whole entry)": "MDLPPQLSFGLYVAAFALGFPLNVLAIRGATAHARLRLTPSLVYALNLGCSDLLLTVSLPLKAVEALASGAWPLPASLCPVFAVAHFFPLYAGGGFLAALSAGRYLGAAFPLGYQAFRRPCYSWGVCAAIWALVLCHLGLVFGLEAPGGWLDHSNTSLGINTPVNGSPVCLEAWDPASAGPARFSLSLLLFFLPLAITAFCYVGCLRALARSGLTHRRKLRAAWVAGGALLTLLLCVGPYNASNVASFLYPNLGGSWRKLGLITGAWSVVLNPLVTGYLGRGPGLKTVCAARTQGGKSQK", "test": "GPR40 binding assay, partial agonist tracer [3H]L358", "design": "expressed in transfected cells; host or cells: CHO / CHO-K1 cells, membrane preparation", "settings": "radioligand L-001533358", "procedure": "Two small molecule tracers, the partial agonist [3H][…] and the AgoPAM [3H]25, are used to measure compound affinity at each site as described previously. Because of the allosteric coupling of the two sites and the nature of the assay, addition of a compound will either displace (binds to same site) or augment (binds to allosterically coupled site) radiotracer. Membranes expressing GPR40 were prepared from CHO cells stably expressing human GPR40. […] Sigma P8830) and were homogenized in 50 ml aliquots with a motor-driven glass Dounce homogenizer, 15 strokes at 1900 rpm on wet ice, repeating once. Homogenates were centrifuged at 2200 rpm for 10 min at 4°C. Supernatants were carefully removed and pooled. Homogenization and centrifugation were repeated until the debris pellet was translucent to maximize membrane recovery. Supernatants were then centrifuged at […] rpm for 20 min. at 4°C. […] Protein concentration was determined by Pierce BCA kit. […] The beads and membrane mixture is then vigorously mixed for 30 minutes at room temperature prior to addition to the assay. […] Next, 15 μl of the radioligand and 35 μl of the beads/membranes solution is added to each well. The assay plates are then sealed and incubated for 30 minutes at room temperature on an orbital shaker. The plates are allowed to settle for 16 hours and then counted on a TopCount scintillation counter (PE). […] Maximal % bound and IC50 are then determined for each test compound. 5 μg/well membrane together with 200 μg/well of PVT WGA SPA beads (GE #RPNG-0001) were suspended in a white 96 well plate with a final concentration of 50 μl/well in assay buffer (50 mM Tris, 10 mM MgCl2, and 2 mM EDTA). […] The plate is briefly mixed and incubated for 3-18 h at room temperature, before it is read on a MicroBeta plate counter (Perkin Elmer, MS, USA)."}, "[3]": {"biological_target": "T3, mouse GPR40 (Mus musculus, UniProt Q76JU9)", "T3 construct": "expressed in transfected cells; host or cells: CHO-K1 (methods)", "T3 sequence (Q76JU9 whole entry)": "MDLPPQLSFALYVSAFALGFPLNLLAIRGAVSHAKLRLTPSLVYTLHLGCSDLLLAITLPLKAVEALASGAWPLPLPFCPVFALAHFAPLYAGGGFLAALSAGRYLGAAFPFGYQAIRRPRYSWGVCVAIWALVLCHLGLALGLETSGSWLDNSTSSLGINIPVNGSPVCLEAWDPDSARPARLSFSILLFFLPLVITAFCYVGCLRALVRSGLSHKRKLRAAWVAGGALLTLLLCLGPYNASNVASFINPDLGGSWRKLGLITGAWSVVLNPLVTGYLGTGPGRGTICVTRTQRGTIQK", "test": "Mouse GPR40 IP1 accumulation assay", "assay_type": "cell-based", "procedure": "as §1, §2"}, "[4]": {"biological_target": "T2, human GPR40", "test": "Human GPR40 IP1 accumulation assay", "assay_type": "cell-based", "design": "expressed in transfected cells", "procedure": "as §1, §2"}, "[5]": {"settings": "maximal % activity vs in-house partial agonist control"}}, "note": "Where “and” joins values, the source holds several entries; their conditions need not be identical. Equal entries are not always repeated. Where two headings read alike, the source gives them in different places."}
{"compound": "COc1ccc(F)c(-c2ccc(COc3cccc([C@@H](CC(=O)O)C4CC4)c3)cc2C2=CCCC2(C)C)c1", "note": "[AM-1638, reference compound]", "values": [{"measurement": "Rat GPR40 Receptor Activation (%)", "setting": "[1]; dose 1.00E-06 M", "result": 370, "unit": "%"}, {"measurement": "Rat GPR40 Receptor Activation (%)", "setting": "[1]; dose 1.50E-11 M", "result": -18, "unit": "%"}, {"measurement": "Rat GPR40 Receptor Activation (%)", "setting": "[1]; dose 1.56E-08 M", "result": 132, "unit": "%"}, {"measurement": "Rat GPR40 Receptor Activation (%)", "setting": "[1]; dose 2.44E-10 M", "result": 11, "unit": "%"}, {"measurement": "Rat GPR40 Receptor Activation (%)", "setting": "[1]; dose 2.50E-07 M", "result": 361, "unit": "%"}, {"measurement": "Rat GPR40 Receptor Activation (%)", "setting": "[1]; dose 3.91E-09 M", "result": 23, "unit": "%"}, {"measurement": "Rat GPR40 Receptor Activation (%)", "setting": "[1]; dose 4.00E-12 M", "result": -6, "unit": "%"}, {"measurement": "Rat GPR40 Receptor Activation (%)", "setting": "[1]; dose 6.10E-11 M", "result": 2, "unit": "%"}, {"measurement": "Rat GPR40 Receptor Activation (%)", "setting": "[1]; dose 6.25E-08 M", "result": 275, "unit": "%"}, {"measurement": "Rat GPR40 Receptor Activation (%)", "setting": "[1]; dose 9.77E-10 M", "result": 18, "unit": "%"}, {"measurement": "Rat GPR40 Functional Assay %Act", "setting": "[1]; individual replicates (n)", "result": "380% and 366%"}, {"measurement": "EC50", "setting": "[1]; individual replicates (n), read-out: Rat GPR40 Functional Assay EC50", "result": "26 nM and 56 nM"}, {"measurement": "Efficacy (% Activation), Rat", "setting": "[1]; [5]", "result": "(373%)"}, {"measurement": "EC50", "setting": "[1]; mean ± SD, n = 2–20, IP accumulation, read-out: Potency [EC50, nM] ± SD, Rat", "result": "41 ± 21", "unit": "nM"}, {"measurement": "% Bound Normalized to 100", "setting": "[2]; dose 0.318285 nM", "result": 102.20, "unit": "%"}, {"measurement": "%Bound", "setting": "[2]; dose 0.318285 nM", "result": 108.18, "unit": "%"}, {"measurement": "% Bound Normalized to 100", "setting": "[2]; dose 1.00578 nM", "result": 103.34, "unit": "%"}, {"measurement": "%Bound", "setting": "[2]; dose 1.00578 nM", "result": 109.31, "unit": "%"}, {"measurement": "% Bound Normalized to 100", "setting": "[2]; dose 3.17827 nM", "result": 130.10, "unit": "%"}, {"measurement": "%Bound", "setting": "[2]; dose 3.17827 nM", "result": 136.07, "unit": "%"}, {"measurement": "% Bound Normalized to 100", "setting": "[2]; dose 10.0433 nM", "result": 137.50, "unit": "%"}, {"measurement": "%Bound", "setting": "[2]; dose 10.0433 nM", "result": 143.47, "unit": "%"}, {"measurement": "% Bound Normalized to 100", "setting": "[2]; dose 31.7369 nM", "result": 182.19, "unit": "%"}, {"measurement": "%Bound", "setting": "[2]; dose 31.7369 nM", "result": 188.17, "unit": "%"}, {"measurement": "% Bound Normalized to 100", "setting": "[2]; dose 100.289 nM", "result": 189.31, "unit": "%"}, {"measurement": "%Bound", "setting": "[2]; dose 100.289 nM", "result": 195.29, "unit": "%"}, {"measurement": "% Bound Normalized to 100", "setting": "[2]; dose 316.912 nM", "result": 199.27, "unit": "%"}, {"measurement": "%Bound", "setting": "[2]; dose 316.912 nM", "result": 205.25, "unit": "%"}, {"measurement": "% Bound Normalized to 100", "setting": "[2]; dose 1001.44 nM", "result": 201.84, "unit": "%"}, {"measurement": "%Bound", "setting": "[2]; dose 1001.44 nM", "result": 207.81, "unit": "%"}, {"measurement": "% Bound Normalized to 100", "setting": "[2]; dose 3164.56 nM", "result": 204.40, "unit": "%"}, {"measurement": "%Bound", "setting": "[2]; dose 3164.56 nM", "result": 210.37, "unit": "%"}, {"measurement": "% Bound Normalized to 100", "setting": "[2]; dose 10000 nM", "result": 189.59, "unit": "%"}, {"measurement": "%Bound", "setting": "[2]; dose 10000 nM", "result": 195.57, "unit": "%"}, {"measurement": "Mouse GPR40 Receptor Activation (%)", "setting": "[3]; dose 1.00E-06 M", "result": 394, "unit": "%"}, {"measurement": "Mouse GPR40 Receptor Activation (%)", "setting": "[3]; dose 1.50E-11 M", "result": -7, "unit": "%"}, {"measurement": "Mouse GPR40 Receptor Activation (%)", "setting": "[3]; dose 1.56E-08 M", "result": 156, "unit": "%"}, {"measurement": "Mouse GPR40 Receptor Activation (%)", "setting": "[3]; dose 2.44E-10 M", "result": 2.81, "unit": "%"}, {"measurement": "Mouse GPR40 Receptor Activation (%)", "setting": "[3]; dose 2.50E-07 M", "result": 318, "unit": "%"}, {"measurement": "Mouse GPR40 Receptor Activation (%)", "setting": "[3]; dose 3.91E-09 M", "result": 67, "unit": "%"}, {"measurement": "Mouse GPR40 Receptor Activation (%)", "setting": "[3]; dose 4.00E-12 M", "result": -8.43, "unit": "%"}, {"measurement": "Mouse GPR40 Receptor Activation (%)", "setting": "[3]; dose 6.10E-11 M", "result": 3.63, "unit": "%"}, {"measurement": "Mouse GPR40 Receptor Activation (%)", "setting": "[3]; dose 6.25E-08 M", "result": 254, "unit": "%"}, {"measurement": "Mouse GPR40 Receptor Activation (%)", "setting": "[3]; dose 9.77E-10 M", "result": 19, "unit": "%"}, {"measurement": "Mouse GPR40 Functional Assay %Act", "setting": "[3]; individual replicates (n)", "result": "406% and 397%"}, {"measurement": "EC50", "setting": "[3]; individual replicates (n), read-out: Mouse GPR40 Functional Assay EC50", "result": "44 nM and 28 nM"}, {"measurement": "Efficacy (% Activation), Mouse", "setting": "[3]; [5]", "result": "(402%)"}, {"measurement": "EC50", "setting": "[3]; mean ± SD, n = 2–20, IP accumulation, read-out: Potency [EC50, nM] ± SD, Mouse", "result": "36 ± 11", "unit": "nM"}, {"measurement": "Human GPR40 Receptor Activation (%)", "setting": "[4]; dose 2.00E-06 M", "result": 237, "unit": "%"}, {"measurement": "Human GPR40 Receptor Activation (%)", "setting": "[4]; dose 2.00E-07 M", "result": 246, "unit": "%"}, {"measurement": "Human GPR40 Receptor Activation (%)", "setting": "[4]; dose 2.00E-08 M", "result": 186, "unit": "%"}, {"measurement": "Human GPR40 Receptor Activation (%)", "setting": "[4]; dose 2.00E-09 M", "result": 90, "unit": "%"}, {"measurement": "Human GPR40 Receptor Activation (%)", "setting": "[4]; dose 2.00E-10 M", "result": 5.57, "unit": "%"}, {"measurement": "Human GPR40 Receptor Activation (%)", "setting": "[4]; dose 6.00E-07 M", "result": 204, "unit": "%"}, {"measurement": "Human GPR40 Receptor Activation (%)", "setting": "[4]; dose 6.00E-08 M", "result": 223, "unit": "%"}, {"measurement": "Human GPR40 Receptor Activation (%)", "setting": "[4]; dose 6.00E-09 M", "result": 129, "unit": "%"}, {"measurement": "Human GPR40 Receptor Activation (%)", "setting": "[4]; dose 6.00E-10 M", "result": 27, "unit": "%"}, {"measurement": "Human GPR40 Receptor Activation (%)", "setting": "[4]; dose 6.00E-11 M", "result": -7, "unit": "%"}, {"measurement": "HUMAN GPR40 Functional Assay %Act", "setting": "[4]; individual replicates (n)", "result": "245% and 240% and 164% and 211% and 215% and 163%"}, {"measurement": "EC50", "setting": "[4]; individual replicates (n), read-out: HUMAN GPR40 Functional Assay EC50", "result": "3.7 nM and 4.2 nM and 7.3 nM and 1.3 nM and 2.4 nM and 3.6 nM"}, {"measurement": "Efficacy (% Activation), Human", "setting": "[4]; [5]", "result": "(200%)"}, {"measurement": "EC50", "setting": "[4]; mean ± SD, n = 2–20, IP accumulation, read-out: Potency [EC50, nM] ± SD, Human", "result": "3.7 ± 1.9", "unit": "nM"}]}
